Where two headings read alike, the source gives them in different places. Each block holds one compound with its values, some of them ahead of it.
Assays:
[1] = human, in vivo
Procedure: (§1) The absorption of iron was established by collection of venous blood samples collected by hypodermic syringe and clotted at room temperature for one hour in silicone coated glass tubes. The tubes were centrifuged at 4,000 g for 30 minutes at 4° C. to isolate the serum which is removed and stored at -20° C. The serum samples were assayed for serum iron via spectrophotometry using ferrozine reagent.
(§2) The tests were conducted in healthy menstruating female volunteers 21 to 45 years of age having normal hemoglobin and hematocrit valves. The subjects fasted overnight. Fifteen to 24 subjects were used in each study. Each study was conducted as a randomized crossover trial with the composition being administered at 8 a.m. at 3 to 4 day intervals. Blood was first taken in the fasting state. Then the preparation was administered using 50 ml of deionized water and the subjects remained fasting until the final blood sample was obtained. Serum iron levels were assayed in duplicate on a blind basis.
(§3) All valves were corrected using this valve for diurnal variation. Values for iron absorption were calculated from the increases in serum iron concentration measured 2 to 6 hours after iron ingestion.
(§4) In each case, the quantities of mineral stated are on the basis of the elemental metal as opposed to the weight of the entire salt.
(§5) This study involved 15 female subjects of child bearing age.
(§6) Again, 15 females of child bearing age were studied using ferrous fumarate alone and in combinations of calcium sulfate (CS), calcium carbonate (CC) and magnesium oxide (MX). The study involved 15 females of child bearing age with data obtained three hours after oral ingestion.
(§7) The data were obtained 3 hours after oral ingestion.

[2] = Iron absorption in healthy menstruating female volunteers (serum iron after oral ingestion, randomized crossover; Studies I-IV); settings: 3 hours after oral ingestion; for effect of co-administered mineral salt on iron absorption: Study II, co-administered with ferrous fumarate
Procedure: as §1, §2, §3, §4, §5, §6, §7

Calculated mean values for iron absorption, Average [1]: 8.1 mg
Compound: O=C([O-])/C=C/C(=O)[O-].[Fe+2] [Ferrous fumarate, ferrous fumarate, reference compound]

Compound: O=S(=O)([O-])[O-].[Ca+2] [Plaster of paris, calcium sulfate]
effect of co-administered mineral salt on iron absorption [2]: does not seem to be inhibitory

Compound: O=C(O)O [calcium carbonate]
effect of co-administered mineral salt on iron absorption [2]: additive inhibitory effects on iron absorption
effect of mineral component on bioavailability of the iron supplement ([2]; Study III, mineral components of the formulations): depressant effects

effect of mineral component on bioavailability of the iron supplement ([1]; po): depressant effects
Compound: [O]=[Mg] [magnesium oxide]
effect of co-administered mineral salt on iron absorption ([1]; po): additive inhibitory effects on iron absorption

From US4431634A, “Prenatal iron supplements” (American Cyanamid Company, priority 1981, dated 1984)
